“And” between values parts separate entries of the source, which are not always exact repeats. Equal entries are not always repeated.
How the values were obtained:
human TLR2 (hTLR2) [1] = target: T1, human TLR2 (hTLR2) (Homo sapiens, UniProt O60603); assay: Activation of human TLR2 IV: HEK-BLUE-hTLR2 cells; type: cell-based; details: FIG. 4
T1 construct: host or cells: HEK293 (HEK-BLUE-hTLR2)
Protocol: HEK-BLUE-hTLR2 cells are designed for studying the stimulation of human TLR2 (hTLR2) by monitoring the activation of NF-kB. HEK-BLUE-hTLR2 cells are obtained by co-transfection of the hTLR2 and SEAP (secreted embryonic alkaline phosphatase) reporter genes into HEK293 cells. Stimulation with a TLR2 ligand activates NF-kB which induces the production of SEAP.
HEK-BLUE-hTLR2 cells were purchased from InvivoGen (San Diego, CA, USA). Cells were grown in DMEM supplemented with 10% FCS, 100 U/ml penicillin, 100 ug/ml streptomycin and 2 mM L-glutamine, 100 μg/mL Normocin in the presence of selection antibiotic purchased from InvivoGen and passaged when 70% confluence was reached per manufacturer's recommendation. […]

[2] = Stability IV: formulation pH at each time point; type: physicochemical
Protocol: Each compound was formulated in 0.9% w/w saline with addition of 0.1% w/w EDTA at about pH 5. The formulations were stored in the dark under accelerated conditions (40° C./75% RH) and reference formulations were stored at −80° C. At days 0, 9 and 28, samples were analysed by UHPLC and pH was measured.
The remaining ˜1 mL of solution in the clear glass HPLC vials was stored at 40° C./75% RH and was used to measure pH at each time point.
The formulation pH data recorded at each time point are compiled in Table 19. There was a general trend for the pH to increase with time but the effect was not pronounced.

[3] = Solubility in deionised water; type: physicochemical; details: DI water; read-out: concentration at which fully soluble in deionised (DI) water
Protocol: All spray drying feed solutions were prepared in deionised (DI) water. […] All other excipient components (mannitol, trehalose and HPMC) were also shown readily soluble in the DI water.

SARS-CoV-2 [4] = assay: A204 efficacy against SARS-CoV-2 in the hamster model - prophylaxis; type: in vivo
SARS-CoV-2 [5] = assay: A204 efficacy against SARS-CoV-2 in the hamster model - treatment; type: in vivo; details: 10 ug/ml in 100 ul, 8 hours post infection; to 7 dpi
human TLR2 (hTLR2) [6] = target: T1, human TLR2 (hTLR2); assay: Activation of human TLR2 II: HEK-BLUE-hTLR2 SEAP reporter assay; type: cell-based
human TLR2 = target: T2, human TLR2 (Homo sapiens, UniProt O60603); assay: HEK-Blue hTLR2 Dose Response (NF-κB SEAP reporter); type: cell-based; details: for stimulatory (agonist) activity for hTLR2: HEK-Blue hTLR2
T2 construct: expressed in transfected cells; host or cells: HEK-Blue hTLR2
T2 sequence (O60603 21-784): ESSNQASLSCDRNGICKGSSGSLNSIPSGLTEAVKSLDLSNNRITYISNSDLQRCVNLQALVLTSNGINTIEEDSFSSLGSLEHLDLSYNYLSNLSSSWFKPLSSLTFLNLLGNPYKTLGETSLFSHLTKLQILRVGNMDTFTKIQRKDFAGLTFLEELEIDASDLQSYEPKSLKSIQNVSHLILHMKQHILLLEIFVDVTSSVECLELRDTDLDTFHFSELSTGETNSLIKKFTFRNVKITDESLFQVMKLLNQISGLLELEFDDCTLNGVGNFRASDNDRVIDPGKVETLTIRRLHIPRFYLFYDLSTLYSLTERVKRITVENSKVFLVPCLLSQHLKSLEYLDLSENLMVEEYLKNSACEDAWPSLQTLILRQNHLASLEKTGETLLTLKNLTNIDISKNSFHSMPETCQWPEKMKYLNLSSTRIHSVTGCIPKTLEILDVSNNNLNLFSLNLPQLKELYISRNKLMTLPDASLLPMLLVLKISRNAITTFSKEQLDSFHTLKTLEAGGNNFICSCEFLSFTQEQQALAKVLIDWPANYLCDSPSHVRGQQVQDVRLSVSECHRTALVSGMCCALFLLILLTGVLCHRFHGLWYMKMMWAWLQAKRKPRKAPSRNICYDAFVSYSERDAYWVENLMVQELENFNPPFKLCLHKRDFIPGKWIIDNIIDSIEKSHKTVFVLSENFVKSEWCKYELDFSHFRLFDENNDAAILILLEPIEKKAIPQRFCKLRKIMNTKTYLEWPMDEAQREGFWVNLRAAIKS
T2 sequence (Q9Y2C9 32-796 partner): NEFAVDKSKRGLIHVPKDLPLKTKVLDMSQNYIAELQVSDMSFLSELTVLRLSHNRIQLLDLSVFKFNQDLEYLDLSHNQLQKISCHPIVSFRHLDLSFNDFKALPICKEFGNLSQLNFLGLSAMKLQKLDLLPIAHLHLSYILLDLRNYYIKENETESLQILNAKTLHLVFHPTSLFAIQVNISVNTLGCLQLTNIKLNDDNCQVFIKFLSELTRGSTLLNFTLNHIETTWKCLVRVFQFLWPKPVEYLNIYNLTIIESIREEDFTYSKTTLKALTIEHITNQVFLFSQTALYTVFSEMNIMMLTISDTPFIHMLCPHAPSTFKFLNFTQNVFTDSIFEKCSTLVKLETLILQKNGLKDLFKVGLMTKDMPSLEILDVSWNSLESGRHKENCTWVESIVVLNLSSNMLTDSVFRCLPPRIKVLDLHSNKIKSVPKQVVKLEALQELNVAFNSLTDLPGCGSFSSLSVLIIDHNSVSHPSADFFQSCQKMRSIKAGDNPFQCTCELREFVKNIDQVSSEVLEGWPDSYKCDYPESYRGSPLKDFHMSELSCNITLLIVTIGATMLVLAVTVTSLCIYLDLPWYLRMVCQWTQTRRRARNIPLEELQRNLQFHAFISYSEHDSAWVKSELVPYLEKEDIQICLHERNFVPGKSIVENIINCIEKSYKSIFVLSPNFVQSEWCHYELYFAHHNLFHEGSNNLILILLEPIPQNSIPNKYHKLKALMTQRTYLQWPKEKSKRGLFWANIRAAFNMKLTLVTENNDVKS
Protocol: (§1) Toll-Like Receptor (TLR) stimulation is tested by assessing NF-κB activation in the TLR expressing cell lines. HEK-Blue h/mTLR2 cells have been stably transfected with human or mouse TLR2 and CD14. The activity of the test articles are tested on human and mouse TLR2, as potential agonists. The test articles are evaluated at seven concentrations and compared to control ligands (see list below). These steps are performed in triplicate.
[…] Starting from the 5 μg/mL working stock, a series of six 1:4 serial dilutions were made by mixing 100 μL of the previous highest dilution with 300 μL sterile PBS.
(§2) The secreted embryonic alkaline phosphatase (SEAP) reporter is under the control of a promoter inducible by the transcription factor NF-κB. This reporter gene allows the monitoring of signaling through the TLR, based on the activation of NF-κB. In a 96-well plate (200 μL total volume) containing the appropriate cells (50,000-75,000 cells/well), 20 μL of the test article or the positive control ligand (HKLC) is added to the wells. The media added to the wells is designed for the detection of NF-κB induced SEAP expression. After a 16-24-hour incubation the optical density (OD) is read at 650 nm on a Molecular Devices SpectraMax 340PC absorbance detector.

mouse TLR2 = target: T3, mouse TLR2 (Mus musculus, UniProt Q9QUN7); assay: HEK-Blue mTLR2 Dose Response (NF-κB SEAP reporter); type: cell-based
T3 construct: expressed in transfected cells; host or cells: HEK-Blue mTLR2
T3 sequence (Q9QUN7 25-784): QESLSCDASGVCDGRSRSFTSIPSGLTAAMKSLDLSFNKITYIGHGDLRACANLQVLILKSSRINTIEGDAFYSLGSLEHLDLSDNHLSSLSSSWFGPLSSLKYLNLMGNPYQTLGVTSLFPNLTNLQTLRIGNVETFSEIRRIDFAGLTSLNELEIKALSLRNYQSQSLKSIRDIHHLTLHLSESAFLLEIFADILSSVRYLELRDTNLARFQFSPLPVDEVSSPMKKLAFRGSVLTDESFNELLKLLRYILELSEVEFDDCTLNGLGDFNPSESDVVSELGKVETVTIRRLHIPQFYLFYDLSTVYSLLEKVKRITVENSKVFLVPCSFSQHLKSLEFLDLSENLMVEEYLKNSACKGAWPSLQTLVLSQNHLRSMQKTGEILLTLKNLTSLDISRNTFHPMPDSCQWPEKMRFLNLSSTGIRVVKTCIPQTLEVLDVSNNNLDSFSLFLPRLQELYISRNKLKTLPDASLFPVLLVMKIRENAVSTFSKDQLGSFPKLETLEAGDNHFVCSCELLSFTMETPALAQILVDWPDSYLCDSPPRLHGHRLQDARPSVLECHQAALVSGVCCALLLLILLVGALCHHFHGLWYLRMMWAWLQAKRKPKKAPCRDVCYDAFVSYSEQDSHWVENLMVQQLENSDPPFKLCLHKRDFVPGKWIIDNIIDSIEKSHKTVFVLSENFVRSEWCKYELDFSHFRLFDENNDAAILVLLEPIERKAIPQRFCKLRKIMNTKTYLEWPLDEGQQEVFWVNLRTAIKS
T3 sequence (Q9Y2C9 32-796 partner): as the sequence (Q9Y2C9 32-796 partner) above
Protocol: as §1
A 5 μg/mL working stock was then prepared for each compound from the 20 μg/mL dilution in sterile PBS. Starting from the 5 μg/mL working stock, a series of six 1:4 serial dilutions were made by mixing 100 μL of the previous highest dilution with 300 μL sterile PBS.
as §2

HEK-Blue Null1 cells = assay: HEK-Blue Null1 control cell line (control for human TLR2); type: cell-based; details: TLR2-free control cells
Protocol: as §2

HEK-Blue Null2 cells = assay: HEK-Blue Null2 control cell line (control for mouse TLR2); type: cell-based; details: TLR2-free control cells
Protocol: as §2

T1 sequence (O60603 21-784): as the sequence (O60603 21-784) above
T1 sequence (Q9Y2C9 32-796 partner): as the sequence (Q9Y2C9 32-796 partner) above

Row | SMILES | activity at TLR2 (human TLR2 (hTLR2) [1]) | formulation pH ([2]; 0-days) | formulation pH ([2]; 9-days, 40° C./75% RH) | formulation pH ([2]; 28-days, 40° C./75% RH) | optical density (650 nm), screenings 1-3 (human TLR2 (hTLR2) [6]; 0.1 ng/mL) | optical density (650 nm), screenings 1-3 (human TLR2 (hTLR2) [6]; 0.31 ng/mL) | optical density (650 nm), screenings 1-3 (human TLR2 (hTLR2) [6]; 0.5 ng/mL) | optical density (650 nm), screenings 1-3 (human TLR2 (hTLR2) [6]; 2.0 ng/mL) | optical density (650 nm), screenings 1-3 (human TLR2 (hTLR2) [6]; 7.8 ng/mL) | optical density (650 nm), screenings 1-3 (human TLR2 (hTLR2) [6]; 31.3 ng/mL) | optical density (650 nm), screenings 1-3 (human TLR2 (hTLR2) [6]; 125 ng/mL) | optical density (650 nm), Average (human TLR2; 0.12 pg/mL) | optical density (650 nm), screenings 1-3 (human TLR2; 0.12 pg/mL) | optical density (650 nm), Average (human TLR2; 0.49 pg/mL) | optical density (650 nm), screenings 1-3 (human TLR2; 0.49 pg/mL) | optical density (650 nm), Average (human TLR2; 1.95 pg/mL) | optical density (650 nm), screenings 1-3 (human TLR2; 1.95 pg/mL) | optical density (650 nm), Average (human TLR2; 7.81 pg/mL) | optical density (650 nm), screenings 1-3 (human TLR2; 7.81 pg/mL) | optical density (650 nm), Average (human TLR2; 31.25 pg/mL) | further results
1 | CCCCCCCCCCCCCCCC(=O)OCC[C@H](CSC[C@H](N)C(=O)N[C@@H](CO)C(=O)NCCOCCOCCOCCOCCOCCOCCOCCOCCOCCOCCOCCOCCOCCOCCOCCOCCOCCOCCOCCOCCOCCOCCOCCOCCOCCOCCOCCOCCC(=O)NCC(N)=O)OC(=O)CCCCCCCCCCCCCCC [A204] | significant activity at TLR2 | 5.0 | 5.2 | 5.2 | – | – | – | – | – | – | – | – | – | – | – | – | – | – | – | – | solubility [3]: ≤ 2000 µg/mL; weight change during infection (SARS-CoV-2 [4]; 50 ug/ml in 100 ul intranasal 24 hours prior to infection): lost no weight; lung viral loads versus mock treated animals (SARS-CoV-2 [4]; 7 dpi): slightly lower; viral RNA level versus mock treated animals (fold lower) (SARS-CoV-2 [4]; throat swabs, 2 days post infection, RT-qPCR): 32 fold; recovery of weight loss (SARS-CoV-2 [5]): recovered weight loss more rapidly than PBS treated
2 | CCCCCCCCCCCCCCC(C)C(=O)OC[C@H](CSC[C@H](N)C(=O)N[C@@H](CO)C(=O)NCCOCCOCCOCCOCCOCCOCCOCCOCCOCCOCCOCCOCCOCCOCCOCCOCCOCCOCCOCCOCCOCCOCCOCCOCCOCCOCCOCCOCCC(=O)NCC(N)=O)OC(=O)C(C)CCCCCCCCCCCCCC (stereo partly drawn) [B4] | – | 5.6 | 5.7 | 5.7 | 0.182 and 0.206 and 0.197 | 0.126 and 0.115 | 0.719 and 0.594 and 0.617 | 1.660 and 1.529 and 1.498 | 2.214 and 2.163 | 2.438 and 2.327 and 2.350 | 2.451 and 2.411 and 2.467 | 0.740 | 0.653 and 0.759 and 0.809 | 1.479 | 1.409 and 1.507 and 1.521 | 1.823 | 1.795 and 1.757 and 1.916 | 2.260 | 2.288 and 2.168 and 2.323 | 2.481 | optical density (650 nm), screenings 1-3 (human TLR2; 31.25 pg/mL): 2.440 and 2.485 and 2.518; optical density (650 nm), Average (human TLR2; 125 pg/mL): 2.521; optical density (650 nm), screenings 1-3 (human TLR2; 125 pg/mL): 2.569 and 2.508 and 2.487; optical density (650 nm), Average (human TLR2; 500 pg/mL): 2.611; optical density (650 nm), screenings 1-3 (human TLR2; 500 pg/mL): 2.717 and 2.590 and 2.526; stimulatory (agonist) activity for hTLR2 (human TLR2): possesses stimulatory activity; stimulatory (agonist) activity for mTLR2 (mouse TLR2): possesses stimulatory activity; stimulatory response in HEK-Blue Null1 (human) cells (HEK-Blue Null1 cells): not observed; stimulatory response in HEK-Blue Null2 (mouse) cells (HEK-Blue Null2 cells): not observed
3 | CCCCCCCCCCCCCCC(C)C(=O)OCC[C@H](CSC[C@H](N)C(=O)N[C@@H](CO)C(=O)NCCOCCOCCOCCOCCOCCOCCOCCOCCOCCOCCOCCOCCOCCOCCOCCOCCOCCOCCOCCOCCOCCOCCOCCOCCOCCOCCOCCOCCC(=O)NCC(N)=O)OC(=O)C(C)CCCCCCCCCCCCCC (stereo partly drawn) [B12] | significant activity at TLR2 | 5.6 | 5.7 | 5.7 | 0.239 and 0.202 and 0.208 | 0.116 and 0.132 and 0.137 | 0.585 and 0.558 and 0.559 | 1.429 and 1.308 and 1.638 | 2.187 and 2.257 and 2.302 | 2.422 and 2.423 and 2.449 | 2.409 and 2.564 and 2.615 | 1.362 | 1.443 and 1.313 and 1.329 | 1.860 | 1.892 and 1.785 and 1.902 | 2.045 | 2.149 and 2.008 and 1.979 | 2.411 | 2.420 and 2.446 and 2.366 | 2.457 | optical density (650 nm), screenings 1-3 (human TLR2; 31.25 pg/mL): 2.492 and 2.500 and 2.380; optical density (650 nm), Average (human TLR2; 125 pg/mL): 2.568; optical density (650 nm), screenings 1-3 (human TLR2; 125 pg/mL): 2.608 and 2.541 and 2.555; optical density (650 nm), Average (human TLR2; 500 pg/mL): 2.471; optical density (650 nm), screenings 1-3 (human TLR2; 500 pg/mL): 2.584 and 2.404 and 2.426; stimulatory (agonist) activity for hTLR2 (human TLR2): possesses stimulatory activity; stimulatory (agonist) activity for mTLR2 (mouse TLR2): possesses stimulatory activity; stimulatory response in HEK-Blue Null1 (human) cells (HEK-Blue Null1 cells): not observed; stimulatory response in HEK-Blue Null2 (mouse) cells (HEK-Blue Null2 cells): not observed

Source: patent US20250302972A1, “FORMULATION” (ENA Respiratory Pty Ltd, priority 2021, published 2025)
